Laboratory results published in the supplement of paper PMC10307832.

Legend:
Test in all cases: relative viability (nuclei count vs DMSO), 5 days (fraction); higher = more cells survive
Sunitinib + Luminespib = compound: CCN(CC)CCNC(=O)c1c(C)[nH]c(/C=C2\C(=O)Nc3ccc(F)cc32)c1C [Sunitinib] + CCNC(=O)c1noc(-c2cc(C(C)C)c(O)cc2O)c1-c1ccc(CN2CCOCC2)cc1 [Luminespib] (partner 0.01 µM)
How it was run: (§1)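 Lung cancer cell lines, seeded in 1536-well plates, were treated the following day by pin tool with a single drug or with five library-drug doses (not always all listed) in √10 steps on top of a fixed anchor-drug dose. Cells were fixed and nuclei stained in one step after 5 days, and nuclei were counted. Relative viability is the nuclei count for treated wells divided by that for vehicle wells, reported as medians of duplicate plates.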

Sunitinib + Pictilisib = compound: CCN(CC)CCNC(=O)c1c(C)[nH]c(/C=C2\C(=O)Nc3ccc(F)cc32)c1C [Sunitinib] + CS(=O)(=O)N1CCN(Cc2cc3nc(-c4cccc5[nH]ncc45)nc(N4CCOCC4)c3s2)CC1 [Pictilisib] (partner 1 µM)
How it was run: as §1

Sunitinib + Palbociclib = compound: CCN(CC)CCNC(=O)c1c(C)[nH]c(/C=C2\C(=O)Nc3ccc(F)cc32)c1C [Sunitinib] + CC(=O)c1c(C)c2cnc(Nc3ccc(N4CCNCC4)cn3)nc2n(C2CCCC2)c1=O [Palbociclib] (partner 0.5 µM)
How it was run: as §1

Sunitinib + OSI-027 = compound: CCN(CC)CCNC(=O)c1c(C)[nH]c(/C=C2\C(=O)Nc3ccc(F)cc32)c1C [Sunitinib] + COc1cccc2cc(-c3nc([C@H]4CC[C@H](C(=O)O)CC4)n4ncnc(N)c34)[nH]c12 [OSI-027] (partner 0.5 µM)
How it was run: as §1

| Cell Line | relative viability (Sunitinib + Luminespib; first compound 0.02 µM) | relative viability (Sunitinib + Luminespib; first compound 0.06325 µM) | relative viability (Sunitinib + Luminespib; first compound 0.2 µM) | relative viability (Sunitinib + Luminespib; first compound 0.6325 µM) | relative viability (Sunitinib + Luminespib; first compound 2 µM) | relative viability (Sunitinib + Pictilisib; first compound 0.02 µM) | relative viability (Sunitinib + Pictilisib; first compound 0.06325 µM) | relative viability (Sunitinib + Pictilisib; first compound 0.2 µM) | relative viability (Sunitinib + Pictilisib; first compound 0.6325 µM) | relative viability (Sunitinib + Pictilisib; first compound 2 µM) | relative viability (Sunitinib + Palbociclib; first compound 0.02 µM) | relative viability (Sunitinib + Palbociclib; first compound 0.06325 µM) | relative viability (Sunitinib + Palbociclib; first compound 0.2 µM) | relative viability (Sunitinib + Palbociclib; first compound 0.6325 µM) | relative viability (Sunitinib + Palbociclib; first compound 2 µM) | relative viability (Sunitinib + OSI-027; first compound 0.02 µM) | relative viability (Sunitinib + OSI-027; first compound 0.06325 µM) | relative viability (Sunitinib + OSI-027; first compound 0.2 µM) | relative viability (Sunitinib + OSI-027; first compound 0.6325 µM) | relative viability (Sunitinib + OSI-027; first compound 2 µM) |
| --- | --- | --- | --- | --- | --- | --- | --- | --- | --- | --- | --- | --- | --- | --- | --- | --- | --- | --- | --- | --- |
| NCI-H2009 | 1.02 | 1.05 | 1.18 | 1.04 | 1.04 | 0.748 | 0.791 | 0.842 | 0.876 | 0.758 | 0.183 | 0.241 | 0.212 | 0.231 | 0.25 | 0.578 | 0.772 | 0.704 | 0.771 | 0.666 |
| NCI-H2087 | 0.195 | 0.172 | 0.166 | 0.158 | 0.174 | 0.957 | 0.831 | 1.04 | 0.879 | 0.799 | 0.27 | 0.266 | 0.25 | 0.28 | 0.255 | 0.423 | 0.755 | 0.636 | 0.577 | 0.449 |
| CAL-12T | 0.364 | 0.41 | 0.385 | 0.369 | 0.203 | 0.47 | 0.58 | 0.431 | 0.628 | 0.414 | 0.416 | 0.427 | 0.46 | 0.493 | 0.473 | 0.665 | 0.695 | 0.748 | – | 0.397 |
| UMC-11 | 1.01 | 1.02 | 1.14 | 1.1 | 0.943 | 0.793 | 0.883 | 0.968 | 0.814 | 0.866 | 0.339 | 0.386 | 0.379 | 0.351 | 0.33 | 0.401 | 0.526 | 0.54 | 0.494 | 0.462 |
| NCI-H1793 | 0.19 | 0.166 | 0.165 | 0.191 | 0.166 | – | 0.296 | 0.361 | 0.241 | 0.297 | – | 0.307 | 0.311 | 0.299 | 0.319 | 0.278 | 0.245 | 0.252 | 0.274 | 0.194 |
| SK-LU-1 | 0.21 | 0.187 | 0.21 | 0.216 | 0.2 | 0.538 | 0.66 | 0.603 | 0.53 | 0.483 | 0.381 | 0.4 | 0.4 | 0.411 | 0.356 | 0.323 | 0.387 | 0.4 | 0.348 | 0.199 |
| NCI-H1437 | 1.03 | 1.12 | 1.23 | 1.12 | 1.17 | 0.376 | 0.559 | 0.427 | 0.456 | 0.434 | 0.294 | 0.347 | 0.305 | 0.346 | 0.329 | 0.873 | 0.918 | – | 0.855 | 0.885 |
| NCI-H2023 | 0.602 | 0.671 | 1.08 | 0.765 | 0.611 | 0.205 | 0.265 | 0.26 | 0.269 | 0.23 | 0.361 | 0.424 | 0.456 | 0.437 | 0.343 | 0.341 | 0.437 | 0.399 | 0.398 | 0.289 |
